From patent US20230120564A1, “PYRIDO[3,4-D]PYRIMIDINE DERIVATIVE AND THERAPEUTIC PHARMACEUTIC COMPOSITION COMPRISING SAME” (KOREA INSTITUTE OF SCIENCE AND TECHNOLOGY, priority 2020, published 2023)

Experiments:
ACK1 [1] = target: T1, ACK1 (Homo sapiens, UniProt Q07912); assay: Kinase inhibitory activity, IC50; type: biochemical
Protocol: (§1) The inhibitory activities of the compounds of the present invention against two kinases, GCK and ACK1, were measured, and the IC50 values thereof were calculated. As a control, the following compound GNF7 was used.

GCK = target: T2, GCK (Homo sapiens, UniProt Q12851); assay: Kinase inhibitory activity, IC50; type: biochemical
T2 sequence (Q12851 1-820): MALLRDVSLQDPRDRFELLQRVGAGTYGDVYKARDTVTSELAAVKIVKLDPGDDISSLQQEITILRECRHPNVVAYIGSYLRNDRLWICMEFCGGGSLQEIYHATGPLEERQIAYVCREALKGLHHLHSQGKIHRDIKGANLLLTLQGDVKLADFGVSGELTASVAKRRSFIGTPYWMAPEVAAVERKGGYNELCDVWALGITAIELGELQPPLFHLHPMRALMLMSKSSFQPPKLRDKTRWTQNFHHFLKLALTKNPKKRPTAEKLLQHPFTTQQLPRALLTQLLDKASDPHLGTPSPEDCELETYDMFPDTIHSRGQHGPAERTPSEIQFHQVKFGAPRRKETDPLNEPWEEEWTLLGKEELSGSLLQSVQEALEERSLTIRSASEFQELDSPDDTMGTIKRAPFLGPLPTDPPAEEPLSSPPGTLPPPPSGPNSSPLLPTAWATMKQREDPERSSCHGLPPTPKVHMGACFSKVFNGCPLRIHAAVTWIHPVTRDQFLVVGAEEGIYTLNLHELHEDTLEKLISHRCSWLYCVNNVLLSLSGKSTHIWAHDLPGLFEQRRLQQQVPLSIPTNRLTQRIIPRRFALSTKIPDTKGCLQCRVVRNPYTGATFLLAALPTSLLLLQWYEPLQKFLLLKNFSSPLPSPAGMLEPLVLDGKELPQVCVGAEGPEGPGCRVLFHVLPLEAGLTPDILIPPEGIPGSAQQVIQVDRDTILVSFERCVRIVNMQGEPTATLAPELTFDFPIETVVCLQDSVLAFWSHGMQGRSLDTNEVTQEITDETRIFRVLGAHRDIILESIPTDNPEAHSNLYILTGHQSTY
Protocol: as §1

DDR1 = DDR1 (Homo sapiens, UniProt Q08345); assay: full kinase panel biochemical assay; conditions: single concentration of 1 μM; read-out: percent inhibition of DDR1
Chain of DDR1 (Q08345 19-913): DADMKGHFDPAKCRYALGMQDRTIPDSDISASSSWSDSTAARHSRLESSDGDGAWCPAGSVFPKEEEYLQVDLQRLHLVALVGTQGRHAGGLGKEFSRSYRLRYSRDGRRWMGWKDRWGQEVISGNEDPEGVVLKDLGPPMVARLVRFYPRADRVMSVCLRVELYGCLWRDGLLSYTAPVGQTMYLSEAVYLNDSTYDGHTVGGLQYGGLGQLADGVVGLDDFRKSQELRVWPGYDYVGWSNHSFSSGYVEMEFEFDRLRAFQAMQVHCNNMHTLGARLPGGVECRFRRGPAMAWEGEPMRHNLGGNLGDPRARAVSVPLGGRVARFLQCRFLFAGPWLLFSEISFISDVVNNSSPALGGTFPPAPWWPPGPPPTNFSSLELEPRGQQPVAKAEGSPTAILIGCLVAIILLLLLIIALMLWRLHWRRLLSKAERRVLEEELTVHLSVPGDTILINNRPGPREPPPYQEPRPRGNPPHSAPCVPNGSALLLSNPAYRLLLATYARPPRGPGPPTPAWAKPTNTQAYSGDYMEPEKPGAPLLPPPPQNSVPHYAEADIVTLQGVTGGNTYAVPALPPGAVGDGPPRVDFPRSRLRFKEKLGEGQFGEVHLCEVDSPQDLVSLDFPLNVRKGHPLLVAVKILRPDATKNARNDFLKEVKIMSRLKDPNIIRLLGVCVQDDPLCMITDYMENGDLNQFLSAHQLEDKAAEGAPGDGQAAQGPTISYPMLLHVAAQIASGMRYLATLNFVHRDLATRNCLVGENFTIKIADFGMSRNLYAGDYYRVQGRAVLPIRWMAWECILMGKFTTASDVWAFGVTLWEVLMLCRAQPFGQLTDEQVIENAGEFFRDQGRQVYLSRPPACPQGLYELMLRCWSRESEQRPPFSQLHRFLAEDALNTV
Protocol: (§2) In order to measure the protein kinase inhibitory activity (% inhibition) of the compound of the present invention, biochemical assay was performed in the full kinase panel. As a test compound, Compound No. 4 was used. The percent inhibition of each kinase when treated with the test compound at a single concentration of 1 μM was measured, and the residual enzyme activity values (%) of the kinases were calculated. Kinases whose calculated residual enzyme activity values (%) was 30% or less (i.e., kinases inhibited by 70% or more) are as follows: ABL1, ABL2/ARG, ACK1, ARAF, BLK, BMX/ETK, BRAF, BRK, BTK, c-Kit, c-Src, CSK, DDR1, DDR2, EPHA1, EPHA2, EPHA3, EPHA4, EPHA5, EPHA6, EPHA7, EPHA8, EPHB1, EPHB2, EPHB3, EPHB4, ERBB2/HER2, ERBB4/HER4, FGFR1, FGFR2, FGFR3, FGR, FLT1/VEGFR1, FLT4/VEGFR3, FMS, FRK/PTK5, FYN, GCK/MAP4K2, HCK, HGK/MAP4K4, JAK1, JAK2, KDR/VEGFR2, KHS/MAP4K5, LCK, LYN, LYN B, MEKK1, MLK4, MYLK3, NEK5, P38a/MAPK14, P38b/MAPK11, PDGFRa, PDGFRb, PEAK1, RET, RIPK2, RIPK4, SIK2, SRPK1, TAOK3/JIK, TLK1, TNK1, TXK, TYK2, YES/YES1, YSK4/MAP3K19, and ZAK/MLTK.

KHS/MAP4K5 = KHS/MAP4K5 (Homo sapiens, UniProt Q9Y4K4); assay: full kinase panel biochemical assay; conditions: single concentration of 1 μM; read-out: percent inhibition of KHS/MAP4K5
Chain of KHS/MAP4K5 (Q9Y4K4 whole entry): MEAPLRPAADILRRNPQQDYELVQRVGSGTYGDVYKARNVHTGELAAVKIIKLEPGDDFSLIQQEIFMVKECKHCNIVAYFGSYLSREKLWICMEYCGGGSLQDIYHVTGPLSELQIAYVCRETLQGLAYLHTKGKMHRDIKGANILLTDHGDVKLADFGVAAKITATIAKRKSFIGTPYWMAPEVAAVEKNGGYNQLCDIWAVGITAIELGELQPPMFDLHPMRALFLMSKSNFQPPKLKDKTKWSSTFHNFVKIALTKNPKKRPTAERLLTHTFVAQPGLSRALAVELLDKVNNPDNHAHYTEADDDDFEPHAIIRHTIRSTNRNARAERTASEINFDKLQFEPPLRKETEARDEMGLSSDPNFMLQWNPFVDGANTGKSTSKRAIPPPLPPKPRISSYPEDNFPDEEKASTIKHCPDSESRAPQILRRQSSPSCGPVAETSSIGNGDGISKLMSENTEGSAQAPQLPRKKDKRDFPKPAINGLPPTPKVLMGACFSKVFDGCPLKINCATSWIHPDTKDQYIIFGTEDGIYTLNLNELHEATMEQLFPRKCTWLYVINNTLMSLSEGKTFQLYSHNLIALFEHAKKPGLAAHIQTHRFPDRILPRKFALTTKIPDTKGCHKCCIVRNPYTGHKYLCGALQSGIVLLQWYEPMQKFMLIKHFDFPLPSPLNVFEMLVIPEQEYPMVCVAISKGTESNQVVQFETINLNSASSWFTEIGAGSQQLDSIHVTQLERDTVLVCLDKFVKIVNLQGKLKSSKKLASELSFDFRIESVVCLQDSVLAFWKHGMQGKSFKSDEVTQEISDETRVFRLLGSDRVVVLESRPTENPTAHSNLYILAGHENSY
Protocol: as §2

ERBB4/HER4 = ERBB4/HER4 (Homo sapiens, UniProt Q15303); assay: full kinase panel biochemical assay; conditions: single concentration of 1 μM; read-out: percent inhibition of ERBB4/HER4
Protocol: as §2

ACK1 [2] = target: T1, ACK1; assay: full kinase panel biochemical assay; conditions: single concentration of 1 μM; read-out: percent inhibition of ACK1
Protocol: as §2

CSK = CSK (Homo sapiens, UniProt P41240); assay: full kinase panel biochemical assay; conditions: single concentration of 1 μM; read-out: percent inhibition of CSK
Chain of CSK (P41240 whole entry): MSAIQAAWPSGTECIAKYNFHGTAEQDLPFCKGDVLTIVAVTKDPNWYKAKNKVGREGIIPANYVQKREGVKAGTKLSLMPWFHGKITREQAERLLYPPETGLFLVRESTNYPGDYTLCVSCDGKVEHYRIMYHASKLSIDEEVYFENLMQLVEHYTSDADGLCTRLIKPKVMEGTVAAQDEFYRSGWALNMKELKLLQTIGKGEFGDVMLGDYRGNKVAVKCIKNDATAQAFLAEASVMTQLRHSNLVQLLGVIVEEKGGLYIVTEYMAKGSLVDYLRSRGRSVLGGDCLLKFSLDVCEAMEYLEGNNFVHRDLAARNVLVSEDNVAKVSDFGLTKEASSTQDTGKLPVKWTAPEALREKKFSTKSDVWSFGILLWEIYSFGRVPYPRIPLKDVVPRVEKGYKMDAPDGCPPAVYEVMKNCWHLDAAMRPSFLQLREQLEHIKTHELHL
Protocol: as §2

EPHA2 = EPHA2 (Homo sapiens, UniProt P29317); assay: full kinase panel biochemical assay; conditions: single concentration of 1 μM; read-out: percent inhibition of EPHA2
Chain of EPHA2 (P29317 24-976): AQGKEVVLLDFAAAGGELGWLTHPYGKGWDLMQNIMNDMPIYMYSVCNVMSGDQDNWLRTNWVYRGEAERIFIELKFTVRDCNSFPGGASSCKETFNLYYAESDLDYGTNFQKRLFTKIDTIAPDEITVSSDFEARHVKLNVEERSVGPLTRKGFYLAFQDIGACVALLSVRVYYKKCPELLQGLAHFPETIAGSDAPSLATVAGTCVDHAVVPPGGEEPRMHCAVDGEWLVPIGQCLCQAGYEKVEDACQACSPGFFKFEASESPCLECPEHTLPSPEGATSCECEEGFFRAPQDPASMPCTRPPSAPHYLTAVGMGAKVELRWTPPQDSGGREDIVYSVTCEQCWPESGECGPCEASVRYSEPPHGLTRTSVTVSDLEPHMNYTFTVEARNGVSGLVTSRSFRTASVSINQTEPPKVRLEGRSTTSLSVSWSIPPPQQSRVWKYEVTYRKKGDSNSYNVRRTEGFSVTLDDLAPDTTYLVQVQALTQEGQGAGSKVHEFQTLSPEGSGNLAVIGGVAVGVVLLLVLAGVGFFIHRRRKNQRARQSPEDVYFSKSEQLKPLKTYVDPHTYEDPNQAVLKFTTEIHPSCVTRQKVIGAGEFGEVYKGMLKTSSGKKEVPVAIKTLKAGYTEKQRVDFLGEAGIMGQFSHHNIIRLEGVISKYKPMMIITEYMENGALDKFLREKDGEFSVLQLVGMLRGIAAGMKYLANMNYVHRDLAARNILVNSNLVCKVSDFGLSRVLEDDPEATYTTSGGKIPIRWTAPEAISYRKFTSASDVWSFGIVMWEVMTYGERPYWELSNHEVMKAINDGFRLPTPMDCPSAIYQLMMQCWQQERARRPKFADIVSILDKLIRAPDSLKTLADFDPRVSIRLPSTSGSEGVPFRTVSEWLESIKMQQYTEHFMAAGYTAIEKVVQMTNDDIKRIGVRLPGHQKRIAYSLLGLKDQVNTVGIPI
Protocol: as §2

KDR/VEGFR2 = KDR/VEGFR2 (Homo sapiens, UniProt P35968); assay: full kinase panel biochemical assay; conditions: single concentration of 1 μM; read-out: percent inhibition of KDR/VEGFR2
Protocol: as §2

EPHB4 = EPHB4 (Homo sapiens, UniProt P54760); assay: full kinase panel biochemical assay; conditions: single concentration of 1 μM; read-out: percent inhibition of EPHB4
Protocol: as §2

TXK = TXK (Homo sapiens, UniProt P42681); assay: full kinase panel biochemical assay; conditions: single concentration of 1 μM; read-out: percent inhibition of TXK
Chain of TXK (P42681 whole entry): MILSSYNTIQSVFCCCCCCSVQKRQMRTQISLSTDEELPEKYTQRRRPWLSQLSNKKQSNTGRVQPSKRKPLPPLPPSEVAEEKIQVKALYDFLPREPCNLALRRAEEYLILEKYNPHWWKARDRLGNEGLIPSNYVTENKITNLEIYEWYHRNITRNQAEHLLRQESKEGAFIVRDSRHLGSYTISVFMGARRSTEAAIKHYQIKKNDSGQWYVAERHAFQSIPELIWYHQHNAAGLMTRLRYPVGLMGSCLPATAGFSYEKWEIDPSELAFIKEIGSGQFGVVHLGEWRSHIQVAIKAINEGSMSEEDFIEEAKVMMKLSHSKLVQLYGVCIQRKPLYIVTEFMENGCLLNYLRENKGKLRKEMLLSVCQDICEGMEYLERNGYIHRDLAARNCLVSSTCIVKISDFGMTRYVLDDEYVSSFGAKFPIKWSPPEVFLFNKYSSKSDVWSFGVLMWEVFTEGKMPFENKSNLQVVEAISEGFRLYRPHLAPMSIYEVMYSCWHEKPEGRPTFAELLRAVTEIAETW
Protocol: as §2

Ba/F3 (N-Ras G12D) = assay: Inhibition of cell proliferation (GI50); type: cell-based; conditions: Mus musculus, BaF3; mt-NRAS (G12D) Ba/F3 cell line; read-out: Proliferation inhibitory activity (GI50, μM) Ba/F3 (N-Ras G12D)
Protocol: (§3) The inhibitory activities of the compounds of the present invention against the proliferation of the mt-NRAS (G12D) Ba/F3 and […] (mt-NRAS) cell lines were measured and the GI50 values thereof were calculated.

OCI-AML3 (N-Ras Q61L) = assay: Inhibition of cell proliferation (GI50); type: cell-based; conditions: Homo sapiens, OCI-AML-3; OCI-AML3 cell line; read-out: Proliferation inhibitory activity (GI50, μM) OCI-AML3 (N-Ras Q61L)
Protocol: as §3
Referring to the results in Table 2, it can be seen that the compound of the present invention has inhibitory activity against the proliferation of the human acute myeloid leukemia cell line (OCI-AML3) having the NRAS mutant gene, and the effect thereof is remarkable. Therefore, it can be seen that the compound of the present invention is particularly effective as a therapeutic agent for acute myeloid leukemia (AML).

T1 sequence (Q07912 whole entry): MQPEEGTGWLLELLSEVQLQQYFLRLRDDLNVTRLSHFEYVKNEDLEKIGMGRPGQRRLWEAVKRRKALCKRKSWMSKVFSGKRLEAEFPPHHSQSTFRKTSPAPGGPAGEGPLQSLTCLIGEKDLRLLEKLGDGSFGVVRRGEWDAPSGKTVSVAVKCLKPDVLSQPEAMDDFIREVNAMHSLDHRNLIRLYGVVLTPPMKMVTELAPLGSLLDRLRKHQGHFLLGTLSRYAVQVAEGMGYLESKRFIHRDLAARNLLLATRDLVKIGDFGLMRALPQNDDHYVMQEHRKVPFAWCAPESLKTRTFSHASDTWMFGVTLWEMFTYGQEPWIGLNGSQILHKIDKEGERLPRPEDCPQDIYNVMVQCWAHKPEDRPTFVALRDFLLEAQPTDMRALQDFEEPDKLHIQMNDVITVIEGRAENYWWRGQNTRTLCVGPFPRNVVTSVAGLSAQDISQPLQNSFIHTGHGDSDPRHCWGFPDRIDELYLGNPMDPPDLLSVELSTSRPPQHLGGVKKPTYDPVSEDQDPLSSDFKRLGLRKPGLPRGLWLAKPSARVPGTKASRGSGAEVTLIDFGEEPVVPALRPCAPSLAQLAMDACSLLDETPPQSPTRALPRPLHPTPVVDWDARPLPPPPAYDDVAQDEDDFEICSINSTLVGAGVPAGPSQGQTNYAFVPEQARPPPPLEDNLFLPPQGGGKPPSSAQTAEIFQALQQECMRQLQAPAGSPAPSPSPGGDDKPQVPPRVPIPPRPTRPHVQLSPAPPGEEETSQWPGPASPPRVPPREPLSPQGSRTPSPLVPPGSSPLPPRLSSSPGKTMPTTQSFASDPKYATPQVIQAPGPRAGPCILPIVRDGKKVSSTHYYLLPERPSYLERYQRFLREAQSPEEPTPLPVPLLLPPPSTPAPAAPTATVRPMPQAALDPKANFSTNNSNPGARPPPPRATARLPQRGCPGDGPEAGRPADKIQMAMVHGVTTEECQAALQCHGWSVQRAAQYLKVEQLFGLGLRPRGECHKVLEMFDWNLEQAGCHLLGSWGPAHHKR

In the case of Cc1ccc(Nc2ncc3cc(-c4cc(NC(=O)c5cccc(C(F)(F)F)c5)ccc4C)ncc3n2)cn1 [Compound No. 4, N-(4-methyl-3-(2-((6-methylpyridin-3-yl)amino)pyrido[3,4-d]pyrimidin-6-yl)phenyl)-3-(trifluoromethyl)benzamide], the IC50 (ACK1 [1]) is reported as < 100 nM, the IC50 (GCK) is reported as 100 to 1000 nM and the inhibition at 1 µM (DDR1) is reported as ≥ 70%. For the same compound, the inhibition at 1 µM (KHS/MAP4K5) was ≥ 70%, the inhibition at 1 µM (ERBB4/HER4) was ≥ 70% and the inhibition at 1 µM (ACK1 [2]) was ≥ 70%. For the same compound, the inhibition at 1 µM (CSK) was ≥ 70%, the inhibition at 1 µM (EPHA2) was ≥ 70% and the inhibition at 1 µM (KDR/VEGFR2) was ≥ 70%. The inhibition at 1 µM (EPHB4) was ≥ 70%, the inhibition at 1 µM (TXK) was ≥ 70% and the GI50 (Ba/F3 (N-Ras G12D)) was < 0.5 µM. For the same compound, the GI50 (OCI-AML3 (N-Ras Q61L)) was < 0.5 µM.
